Test results taken from patent US10918741B2, “PSMA-targeting imaging agents” (THE CLEVELAND CLINIC FOUNDATION, priority 2014, dated 2021).
Entries after “also recorded” stand apart in the source; their conditions may differ. Primed or numbered codes have the meaning given here. Where no end group is shown, it is not given here. [ ]: non-standard residue; d: D form. Amc = N-aminomethyl cyclohexanoic acid; Ahx = NCCCCCC(=O)O; E′E = Glu-urea-Glu

Key:
[1] = cited from earlier work
[2] = hematological, biochemistry, and histopathological analyses; cited from earlier work
[3] = system: PC3-PIP (PSMA+) and PC3-flu (PSMA−) tumor xenographs; test: SPECT/CT imaging of [^99mTc]3; type: in vivo, mice; conditions: 4 hours after tail vein injection
Description: (§1) Male NOD scid gamma (NSG) mice bearing PC3-PIP (PSMA+) and PC3-flu (PSMA−) tumor xenographs were used for imaging. The mice were injected with 3 mCi of [^99mTc]3. Four hours after tracer injection, SPECT/CT images were acquired using a high-resolution multi-pinhole SPECT with collimation insert with a clinical SPECT/CT scanner (Symbia T6, Siemens Molecular Imaging). DiFilippo, F. P. Phys Med Biol 53(15): 4185-4201 (2008). For the biodistribution study without imaging, male NSG mice bearing two PC3-PIP tumors were injected with 50-100 µCi of [^99mTc]3. Mice were sacrificed at 2 hours, 4 hours and 6 hours after injection. After thoracotomy, blood was first withdrawn from the heart, then the organs were resected en-block. The activities were counted with a Perkin Elmer 2480 Automatic Gamma Counter. The decay corrected percent injected dose per gram of organ weight (wet) (% ID/g) was calculated.

[4] = system: PC3-PIP tumors; parameters: species or system mice; conditions: mouse, in vivo
Description: as §1

[5] = type: physicochemical
Description: Labeling with technetium typically yields 95% radiochemical purity after SepPak purification. […] The kidneys and bladder are the most prominent organs on the images, because PSMA is expressed naturally in mouse kidneys and because it is a renally excreted compound. […] Tumor uptake is 6.0±1.6% at 2 hours, 6.0±2.2% at 4 hours and 5.7%±2.5% at 6 hours (Table 2). […] This is likely related to residual pertechnetate after cartridge purification and dissociation of technetium from the chelate.

[6] = system: PC3-pip (PSMA-positive) and PC3-flu (PSMA-negative) tumors; test: Preoperative NIR imaging with the Maestro in vivo imaging system; parameters: species or system mice
Description: PC3-pip (PSMA-positive) and PC3-flu (PSMA-negative) cells were injected subcutaneously 1.0×10^6 PC3 cells with 200 µL of matrigel into each flank of 6 NOD SCID Gamma (NSG) mice. Chang et al., Cancer Res.; 59:3192-3198 (1999). After the tumors reached a size of ˜5 mm, the mice were anesthetized with isoflurane and were administered 2 or 10 nmol of PSMA-binding fluorescent conjugate via tail vein injection. Preoperative NIR imaging was performed using the Maestro in vivo imaging system (Cambridge Research and Instrumentation, Hopkinton, Mass.). The mice were imaged immediately and at 1-hour intervals after injection of the PSMA targeting fluorescent compound for up to 4 hours. The mice were killed once PSMA+ and PSMA− tumors could be visually differentiated by NIR imaging. The method used was CO2 asphyxiation followed by cervical dislocation.

[7] = system: PC3-pip (PSMA-positive) and PC3-flu (PSMA-negative) tumors; test: NIR fluorescence-guided robotic surgery (da Vinci Si); type: in vivo, mice
Source text: Mouse carcasses were operated on using a da Vinci Si Robot (Intuitive Surgical, Sunnyvale, Calif.). A portable dark box was used to minimize ambient light and to allow optimal fluorescence detection. Three robotic instruments (the novel endoscope to detect NIR fluorescence, a scissor, and a grasper) were inserted through robotic trocars positioned across the top cover of the dark box. The tumors were excised using the new robotic camera to detect the fluorescence of the PSMA-binding conjugate. All procedures were done by a single surgeon (R.S.), who had extensive experience in robotic surgery. Tumor specimens were sent for histopathological analysis to assess margin status.

CC1(C)C(=CC=C2CCCC(C=CC3=[N+](CCCCCC(=O)[O-])c4ccc(S(=O)(=O)[O-])cc4C3(C)C)=C2Oc2ccc(S(=O)(=O)[O-])cc2)N(CCCCS(=O)(=O)[O-])c2ccc(S(=O)(=O)[O-])cc21.[Na+].[Na+].[Na+].[Na+] [IRDye 800CW]
water solubility in words [1]: highly water soluble
toxicity in words [2]: no pathologic evidence of toxicity

^99mTc-E′EAmc-Ahx-dEdEdEGYGGGC ({E′E-Amc}-[Ahx][dE][dE][dE]GYGGGC; not fully specified (C-terminus); also: 99mTc chelated (N3S1)) [[^99mTc]3, Tc99m labeled compound 3]
SPECT/CT imaging result in words [3]: specific targeting of PSMA+PC3-PIP tumors with no significant binding to PC3-flu tumors; also recorded: near background tracer uptake in the PSMA negative tumors, liver, lung, heart and spleen
radioactivity in the stomach [4]: 0.2 % ID/g
radioactivity in the thyroid [4]: 0.3 % ID/g
stability under solvent conditions for HPLC [5]: not stable

ZJ-MCC-dEdEdEGK(IRDye800cw)G
mice with proper targeting on presurgical NIR imaging ([6]; 10 nmol): Two of the 3 mice
preoperative NIR fluorescence imaging result in words ([6]; Maestro in vivo imaging system): strong fluorescence signal from the tracer in the right flank (PSMA positive tumor), bladder, and urethra
time to detect peak fluorescence from the PSMA-positive tumors ([6]; first 3 mice, Maestro imaging system): 120 min
signal intensity from the tumor ([6]; within 240 minutes): already partially decreased
mice with fluorescence detected from the PSMA positive tumors during robotic surgery ([7]; 10 nmol, 120 minutes after injection): 2 of 3
intensity of fluorescence during robotic surgery ([7]; PSMA positive tumors): weak
fluorescence in the PSMA negative (control) tumors ([7]; mouse, in vivo): no tumor fluorescence was identified in any of the mice
